Test results taken from ChEMBL document CHEMBL1139736, “Microwave expedited synthesis of 5-aminocamptothecin analogs: Inhibitors of hypoxia inducible factor HIF-1alpha” (2006).

The compounds below were run on LNCaP C4-2 (assay: Inhibition of HIF1alpha production in c4-2 cells at 10 uM after 24 hrs relative to control). Settings: Homo sapiens, LNCaP C4-2, 24 h.
Type: functional

| SMILES | inhibition at 10 µM [%] |
| --- | --- |
| CC[C@@]1(O)C(=O)OCc2c1cc1n(c2=O)Cc2cc3c(CN(C)C)c(O)ccc3nc2-1 [TOPOTECAN] | 69 |
| CC[C@@]1(O)C(=O)OCc2c1c(NCCF)c1n(c2=O)Cc2cc3ccccc3nc2-1 | 88 |
| CC[C@@]1(O)C(=O)OCc2c1c(NCc1ccc(OC)cc1)c1n(c2=O)Cc2cc3ccccc3nc2-1 | 9 |
| CC[C@@]1(O)C(=O)OCc2c1c(NCc1cccc(F)c1)c1n(c2=O)Cc2cc3ccccc3nc2-1 | 0 |
| CC[C@@]1(O)C(=O)OCc2c1c(NCc1ccc(F)cc1)c1n(c2=O)Cc2cc3ccccc3nc2-1 | 40 |
| CC[C@@]1(O)C(=O)OCc2c1cc1n(c2=O)Cc2cc3ccccc3nc2-1 [CAMPTOTHECIN] | 69 |
| CCCNc1c2c(c(=O)n3c1-c1nc4ccccc4cc1C3)COC(=O)[C@]2(O)CC | 76 |

Each compound was assayed on LNCaP C4-2 (assay: Inhibition of HIF1-alpha production in c4-2 cells at 20 nM after 24 hrs relative to control). Settings: Homo sapiens, LNCaP C4-2, 24 h.
Type: functional

| SMILES | inhibition at 0.02 µM [%] |
| --- | --- |
| CO[C@H]1C[C@@H]2CC[C@@H](C)[C@@](O)(O2)C(=O)C(=O)N2CCCC[C@H]2C(=O)O[C@H]([C@H](C)C[C@@H]2CC[C@@H](O)[C@H](OC)C2)CC(=O)[C@H](C)/C=C(\C)[C@@H](O)[C@@H](OC)C(=O)[C@H](C)C[C@H](C)/C=C/C=C/C=C/1C [SIROLIMUS] | 35 |
